Reference: patent publication US8835476B2, “Synthesis of novel antimicrobials” (priority 2005, dated 2014)
In brackets after ≈: the same amount, converted by molar mass.

Assays:
Format in all cases: cell-based
A. anitratus ATCC 19606 = assay: Broth microdilution MIC, ATCC strains; conditions: Acinetobacter calcoaceticus, ATCC19606; A. anitratus ATCC 19606; read-out: MIC (growth inhibition, microdilution method)
From the text: (§1) All clinical isolates tested were from The North American Urinary Tract Infection Collaborative Alliance (NAUTICA) which is a UTI surveillance study involving 40 medical centres (30 from the US and 10 from Canada). Each centre submitted up to 50 consecutive outpatient midstream urine isolates. All isolates were deemed significant urinary tract pathogens by individual laboratory criteria and identified to the species level by each laboratory's existing protocol. Isolates were transported to the coordinating laboratory (Health Sciences Centre, Winnipeg, Canada) on charcoal swabs. Only one isolate per patient was accepted. Upon receipt, isolates were cultured by the coordinating laboratory, stocked in skim milk, and stored at −80° C. awaiting reference antibiotic susceptibility testing. Elementary demographic information was also compiled for each isolate. Isolates were selected randomly from the above pool to represent 18 different species of Enterobacteriaceae and non-Enterobacteriaceae. An average of 5 strains of each species were tested for a total of 93 organisms. In addition, 23 reference (ATCC) [both gram negative and gram positive] strains were tested.
(§2) Susceptibilities to the compounds were determined using the National Committee for Clinical Laboratory Standards (NCCLS) M7-A6 broth microdilution method. […] DMSO controls were incorporated into the panel to mimic the quantity of DMSO used in dissolving some of the compounds at the higher concentrations. Each final panel well volume was 100 μl with a bacterial inoculum of 5×10^5 colony forming units (CFU)/ml. Panels were read following 16 to 20 hours of incubation at 35° C. in ambient air. The minimum inhibitory concentration (MIC) was defined as the lowest concentration of antimicrobial inhibiting visible growth. Quality control (QC) was performed using four ATCC QC organisms that were run with every batch set up to insure reproducibility.

B. cepacia ATCC 25416 = assay: Broth microdilution MIC, ATCC strains; conditions: Burkholderia cepacia, ATCC25416; B. cepacia ATCC 25416; read-out: MIC (growth inhibition, microdilution method)
From the text: as §1, §2

E. aerogenes ATCC 13048 = assay: Broth microdilution MIC, ATCC strains; conditions: Klebsiella aerogenes, ATCC13048; E. aerogenes ATCC 13048; read-out: MIC (growth inhibition, microdilution method)
From the text: as §1, §2

E. cloacae ATCC 23355 = assay: Broth microdilution MIC, ATCC strains; conditions: Enterobacter cloacae, ATCC23355; E. cloacae ATCC 23355; read-out: MIC (growth inhibition, microdilution method)
From the text: as §1, §2

E. coli ATCC 25922 = assay: Broth microdilution MIC, ATCC strains; conditions: Escherichia coli, ATCC25922, E. coli ATCC 25922; read-out: MIC (growth inhibition, microdilution method)
From the text: as §1, §2

K. oxytoca ATCC 49131 = assay: Broth microdilution MIC, ATCC strains; conditions: Klebsiella oxytoca, ATCC49131; K. oxytoca ATCC 49131; read-out: MIC (growth inhibition, microdilution method)
From the text: as §1, §2

K. pneumoniae ATCC 13883 = assay: Broth microdilution MIC, ATCC strains; conditions: Klebsiella pneumoniae, ATCC13883; K. pneumoniae ATCC 13883; read-out: MIC (growth inhibition, microdilution method)
From the text: as §1, §2

P. mirabilis ATCC 29245 = assay: Broth microdilution MIC, ATCC strains; conditions: Proteus mirabilis, ATCC29245; P. mirabilis ATCC 29245; read-out: MIC (growth inhibition, microdilution method)
From the text: as §1, §2

[1] = system: Ps. aeruginosa ATCC 27853; assay: Broth microdilution MIC, ATCC strains; conditions: Pseudomonas aeruginosa, ATCC27853; Ps. aeruginosa ATCC 27853; read-out: MIC (growth inhibition, microdilution method)
From the text: as §1, §2

S. aureus ATCC 29213 = assay: Broth microdilution MIC, ATCC strains; conditions: for MIC: Staphylococcus aureus, ATCC29213, S. aureus ATCC 29213, read-out: MIC (growth inhibition, microdilution method)
From the text: as §1, §2

[2] = system: S. liquefaciens ATCC 27592; assay: Broth microdilution MIC, ATCC strains; conditions: S. liquefaciens ATCC 27592; read-out: MIC (growth inhibition, microdilution method)
From the text: as §1, §2

[3] = system: S. saprophyticus ATCC 15305; assay: Broth microdilution MIC, ATCC strains; conditions: Staphylococcus saprophyticus, ATCC15305; S. saprophyticus ATCC 15305; read-out: MIC (growth inhibition, microdilution method)
From the text: as §1, §2

P. rettgeri CAP = assay: Broth microdilution MIC, reference strains; conditions: Providencia rettgeri; P. rettgeri (CAP in Table 1); read-out: MIC (growth inhibition, microdilution method)
From the text: as §1, §2

[4] = system: A. baumanii clinical isolates; assay: Broth microdilution MIC, clinical isolate strains (NAUTICA); conditions: Table 4B; each table row is one clinical isolate; unit assumed
From the text: as §1, §2

[5] = system: B. cepacia clinical isolates; assay: as above; conditions: Table 4B; each table row is one clinical isolate; unit assumed
From the text: as §1, §2

[6] = system: C. amalonaticus clinical isolates; assay: as above; conditions: Table 4B; each table row is one clinical isolate; unit assumed
From the text: as §1, §2

[7] = system: C. freundii clinical isolates; assay: as above; conditions: Table 4B; each table row is one clinical isolate; in µg/mL (unit assumed)
From the text: as §1, §2

[8] = system: C. koseril clinical isolates; assay: as above; conditions: Table 4B; each table row is one clinical isolate; unit assumed
From the text: as §1, §2

[9] = system: E. aerogenes clinical isolates; assay: as above; conditions: Table 4B; each table row is one clinical isolate; unit assumed
From the text: as §1, §2

[10] = system: E. cloacae clinical isolates; assay: as above; conditions: Table 4B; each table row is one clinical isolate; unit assumed
From the text: as §1, §2

[11] = system: E. coli clinical isolates; assay: as above; conditions: Table 4B; each table row is one clinical isolate; unit assumed
From the text: as §1, §2

[12] = system: K. oxytoca clinical isolates; assay: as above; conditions: Table 4B; each table row is one clinical isolate; unit assumed
From the text: as §1, §2

[13] = system: K. pneumoniae clinical isolates; assay: as above; conditions: Table 4B; each table row is one clinical isolate; unit assumed
From the text: as §1, §2

[14] = system: M. morganii clinical isolates; assay: as above; conditions: Table 4B; each table row is one clinical isolate; unit assumed
From the text: as §1, §2

[15] = system: P. mirabilis clinical isolates; assay: as above; conditions: Table 4B; each table row is one clinical isolate; unit assumed
From the text: as §1, §2

[16] = system: P. retgerri clinical isolates; assay: as above; conditions: Table 4B; each table row is one clinical isolate; unit assumed
From the text: as §1, §2

[17] = system: P. stuartii clinical isolates; assay: as above; conditions: Table 4B; each table row is one clinical isolate; unit assumed
From the text: as §1, §2

[18] = system: P. vulgaris clinical isolates; assay: as above; conditions: Table 4B; each table row is one clinical isolate; unit assumed
From the text: as §1, §2

[19] = system: S. liquifaciens clinical isolates; assay: as above; conditions: Table 4B; each table row is one clinical isolate; unit assumed
From the text: as §1, §2

[20] = system: S. maltophilia clinical isolates; assay: as above; conditions: Table 4B; each table row is one clinical isolate; unit assumed
From the text: as §1, §2

[21] = system: S. marcescens clinical isolates; assay: as above; conditions: Table 4B; each table row is one clinical isolate; unit assumed
From the text: as §1, §2

Row | Structure (SMILES) | MIC (A. anitratus ATCC 19606) | MIC (B. cepacia ATCC 25416) | MIC (E. aerogenes ATCC 13048) | MIC (E. cloacae ATCC 23355) | MIC (E. coli ATCC 25922) | MIC (K. oxytoca ATCC 49131) | MIC (K. pneumoniae ATCC 13883) | MIC (P. mirabilis ATCC 29245) | MIC [1] | MIC (S. aureus ATCC 29213) | MIC [2] | MIC [3] | MIC (P. rettgeri CAP) | MIC, A. BAUMANII [4] | MIC, B. CEPACIA [5] | MIC, C. AMALONATICUS [6] | MIC, C. FREUNDII [7] | MIC, C. KOSERI [8] | MIC, E. AEROGENES [9] | MIC, E. CLOACAE [10] | also measured
1 | CCOC(=O)c1cc(-c2nnn(C)n2)c(-c2ccc(F)cc2)s1 [DNM-125, ethyl 5-(4-fluorophenyl)-4-(2-methyl-2H-tetrazol-5-yl)thiophene-2-carboxylate] | > 16 µg/mL | > 16 µg/mL | > 16 µg/mL | > 16 µg/mL | > 16 µg/mL | > 16 µg/mL | > 16 µg/mL | > 16 µg/mL | > 16 µg/mL | > 16 µg/mL | > 16 µg/mL | > 16 µg/mL | > 16 µg/mL | > 16 µg/mL | > 16 µg/mL | > 16 µg/mL | >16 | > 16 µg/mL | > 16 µg/mL | > 16 µg/mL | MIC, E. COLI [11]: > 16 µg/mL; MIC, K. OXYTOCA [12]: > 16 µg/mL; MIC, K. PNEUMONIAE [13]: > 16 µg/mL; MIC, M. MORGANII [14]: > 16 µg/mL; MIC, P. MIRABILIS [15]: > 16 µg/mL; MIC, P. RETTGERI [16]: > 16 µg/mL; MIC, P. STUARTII [17]: > 16 µg/mL; MIC, P. VULGARIS [18]: > 16 µg/mL; MIC, S. LIQUEFACIENS [19]: > 16 µg/mL; MIC, S. MALTOPHILIA [20]: > 16 µg/mL; MIC, S. MARCESCENS [21]: > 16 µg/mL
2 | Fc1ccc(-c2cc(-c3nnn[nH]3)c(-c3ccc(F)cc3)s2)cc1 [DNM-131, 5-(2,5-Bis(4-fluorophenyl)thiophen-3-yl)-1H-tetrazole] | > 32 µg/mL | > 32 µg/mL | > 32 µg/mL | > 32 µg/mL | > 32 µg/mL | > 32 µg/mL | > 32 µg/mL | > 32 µg/mL | > 32 µg/mL | 32 µg/mL (≈ 94 µM) | > 32 µg/mL | > 32 µg/mL | > 32 µg/mL | > 32 µg/mL | > 32 µg/mL | > 32 µg/mL | >32 | > 32 µg/mL | > 32 µg/mL | > 32 µg/mL | MIC (growth inhibition, microdilution method) (S. aureus ATCC 29213; S. aureus ATCC 29213): >32 µg/mL; MIC, E. COLI [11]: > 32 µg/mL; MIC, K. OXYTOCA [12]: > 32 µg/mL; MIC, K. PNEUMONIAE [13]: > 32 µg/mL; MIC, M. MORGANII [14]: > 32 µg/mL; MIC, P. MIRABILIS [15]: > 32 µg/mL; MIC, P. RETTGERI [16]: > 32 µg/mL; MIC, P. STUARTII [17]: > 32 µg/mL; MIC, P. VULGARIS [18]: > 32 µg/mL; MIC, S. LIQUEFACIENS [19]: > 32 µg/mL; MIC, S. MALTOPHILIA [20]: > 32 µg/mL; MIC, S. MARCESCENS [21]: > 32 µg/mL
3 | Cn1nnc(-c2cc(-c3ccc(F)cc3)sc2-c2ccc(F)cc2)n1 [DNM-132, 5-(2,5-bis(4-fluorophenyl)thiophen-3-yl)-2-methyl-2H-tetrazole] | > 16 µg/mL | > 16 µg/mL | > 16 µg/mL | > 16 µg/mL | > 16 µg/mL | > 16 µg/mL | > 16 µg/mL | > 16 µg/mL | > 16 µg/mL | > 16 µg/mL | > 16 µg/mL | > 16 µg/mL | > 16 µg/mL | > 16 µg/mL | > 16 µg/mL | > 16 µg/mL | >16 | > 16 µg/mL | > 16 µg/mL | > 16 µg/mL | MIC, E. COLI [11]: > 16 µg/mL; MIC, K. OXYTOCA [12]: > 16 µg/mL; MIC, K. PNEUMONIAE [13]: > 16 µg/mL; MIC, M. MORGANII [14]: > 16 µg/mL; MIC, P. MIRABILIS [15]: > 16 µg/mL; MIC, P. RETTGERI [16]: > 16 µg/mL; MIC, P. STUARTII [17]: > 16 µg/mL; MIC, P. VULGARIS [18]: > 16 µg/mL; MIC, S. LIQUEFACIENS [19]: > 16 µg/mL; MIC, S. MALTOPHILIA [20]: > 16 µg/mL; MIC, S. MARCESCENS [21]: > 16 µg/mL
